Assay results as given in US4504580A, “Antibiotics produced by fermentation of a novel strain of Streptomyces hygroscopicus” (Bristol-Myers Company, priority 1983, dated 1985).
≈ marks a conversion by molar mass, not a printed value. Like-named read-outs stand apart in the source and are kept apart here.

Assays:
Assay type in all cases: cell-based
[1] = system: Staphylococcus aureus 209P; assay: MIC by serial two-fold agar dilution, S. aureus 209P; conditions: Staphylococcus aureus, 209P
Protocol: (§1) The minimum inhibitory concentrations (MIC) of Bu-2659A, B, C, D and E were determined for a variety of gram-positive and gram-negative bacteria by the serial two-fold agar dilution method using the Steer's multi-inoculating apparatus. The inoculum was standardized as a 10^4 dilution of an overnight culture of the test organisms in Heart Infusion Broth (Difco). […] Reference antibiotics utilized in these tests included commercially available neomycin as well as its components, neomycins B and C [as used herein, the term "neomycin" means the commercial product containing neomycins B and C at an approximate ratio of 7:3], paromomycin [the commercial product containing >90% of paromomycin I and <10% of paromomycin II] and ribostamycin.

[2] = system: Staphylococcus aureus Smith; assay: MIC by serial two-fold agar dilution, S. aureus Smith; conditions: Staphylococcus aureus
Protocol: as §1

[3] = system: Staphylococcus aureus D136; assay: MIC by serial two-fold agar dilution, S. aureus D136; conditions: Staphylococcus aureus, D136
Protocol: as §1

[4] = system: Micrococcus luteus PCI 1001; assay: MIC by serial two-fold agar dilution, M. luteus PCI 1001; conditions: Micrococcus luteus, PCI1001
Protocol: as §1

[5] = system: Micrococcus flavus D12; assay: MIC by serial two-fold agar dilution, M. flavus D12; conditions: Micrococcus flavus, D12
Protocol: as §1

[6] = system: Bacillus subtilis PCI 219; assay: MIC by serial two-fold agar dilution, B. subtilis PCI 219; conditions: Bacillus subtilis, PCI219
Protocol: as §1

[7] = system: Escherichia coli NIHJ; assay: MIC by serial two-fold agar dilution, E. coli NIHJ; conditions: Escherichia coli
Protocol: as §1

[8] = system: Escherichia coli Juhl; assay: MIC by serial two-fold agar dilution, E. coli Juhl; conditions: Escherichia coli
Protocol: as §1

[9] = system: Klebsiella pneumoniae D11; assay: MIC by serial two-fold agar dilution, K. pneumoniae D11; conditions: Klebsiella pneumoniae, D11
Protocol: as §1

[10] = system: Proteus vulgaris A9436; assay: MIC by serial two-fold agar dilution, P. vulgaris A9436; conditions: Proteus vulgaris, A9436
Protocol: as §1

[11] = system: Proteus mirabilis A9554; assay: MIC by serial two-fold agar dilution, P. mirabilis A9554; conditions: Proteus mirabilis, A9554
Protocol: as §1

[12] = system: Proteus mirabilis A9906; assay: MIC by serial two-fold agar dilution, P. mirabilis A9906; conditions: Proteus mirabilis, A9906
Protocol: as §1

[13] = system: Proteus morganii A9553; assay: MIC by serial two-fold agar dilution, P. morganii A9553; conditions: Morganella morganii, A9553
Protocol: as §1

[14] = system: Proteus rettgeri A15167; assay: MIC by serial two-fold agar dilution, P. rettgeri A15167; conditions: Providencia rettgeri, A15167
Protocol: as §1

[15] = system: Pseudomonas aeruginosa D15; assay: MIC by serial two-fold agar dilution, P. aeruginosa D15; conditions: Pseudomonas aeruginosa, D15
Protocol: as §1

[16] = system: Pseudomonas aeruginosa A9930; assay: MIC by serial two-fold agar dilution, P. aeruginosa A9930; conditions: Pseudomonas aeruginosa, A9930
Protocol: as §1

[17] = system: Serratia marcescens A20019; assay: MIC by serial two-fold agar dilution, S. marcescens A20019; conditions: Serratia marcescens, A20019
Protocol: as §1

[18] = system: Staphylococcus aureus A20239; assay: MIC, aminoglycoside-resistant S. aureus A20239; conditions: Staphylococcus aureus, A20239
Protocol: as §1

[19] = system: Bacillus brevis IFO 12334; assay: MIC, aminoglycoside-resistant B. brevis IFO 12334; conditions: Brevibacillus brevis, IFO12334
Protocol: as §1

[20] = system: Escherichia coli ML 1630; assay: MIC, aminoglycoside-resistant E. coli ML 1630; conditions: Escherichia coli, ML1630; Table 9; inactivating enzyme APH(3')-I; Mueller-Hinton agar; read-out: MIC
Protocol: as §1

[21] = system: Escherichia coli A20107; assay: MIC, aminoglycoside-resistant E. coli A20107; conditions: Escherichia coli, A20107; Table 9; inactivating enzyme APH(3')-II; Mueller-Hinton agar; read-out: MIC
Protocol: as §1

[22] = system: Escherichia coli JR66/W677; assay: MIC, aminoglycoside-resistant E. coli JR66/W677; conditions: Escherichia coli, JR66/W677
Protocol: as §1

[23] = system: Escherichia coli JR88; assay: MIC, aminoglycoside-resistant E. coli JR88; conditions: Escherichia coli, JR88
Protocol: as §1

[24] = system: Escherichia coli JR35/C600; assay: MIC, aminoglycoside-resistant E. coli JR35/C600; conditions: Escherichia coli, JR35/C600
Protocol: as §1

[25] = system: Escherichia coli A20732; assay: MIC, aminoglycoside-resistant E. coli A20732; conditions: Escherichia coli, A20732; Table 9; inactivating enzyme ANT(2"); Mueller-Hinton agar; read-out: MIC
Protocol: as §1

[26] = system: Escherichia coli NR79/W677; assay: MIC, aminoglycoside-resistant E. coli NR79/W677; conditions: Escherichia coli, NR79/W677
Protocol: as §1

[27] = system: Enterobacter cloacae A20364; assay: MIC, aminoglycoside-resistant E. cloacae A20364; conditions: Enterobacter cloacae, A20364
Protocol: as §1

[28] = system: Pseudomonas aeruginosa A20601; assay: MIC, aminoglycoside-resistant P. aeruginosa A20601; conditions: Pseudomonas aeruginosa, A20601
Protocol: as §1

[29] = system: Pseudomonas aeruginosa A20896; assay: MIC, aminoglycoside-resistant P. aeruginosa A20896; conditions: Pseudomonas aeruginosa, A20896
Protocol: as §1

SMILES	MIC [1] [mg/L]	MIC [2] [mg/L]	MIC [3] [mg/L]	MIC [4] [mg/L]	MIC [5] [mg/L]	MIC [6] [mg/L]	MIC [8] [mg/L]	MIC [9] [mg/L]	MIC [10] [mg/L]	MIC [11] [mg/L]	MIC [12] [mg/L]	MIC [13] [mg/L]	MIC [14] [mg/L]	MIC [15] [mg/L]	MIC [16] [mg/L]	MIC [17] [mg/L]	MIC [20] [mg/L]	MIC [21] [mg/L]	MIC [22] [mg/L]	MIC [23] [mg/L]	other results
NC[C@@H]1O[C@H](O[C@H]2[C@@H](O)[C@H](O[C@@H]3[C@@H](O)[C@H](N)C[C@H](N)[C@H]3O[C@H]3O[C@H](CO)[C@@H](O)[C@H](O)[C@H]3N)O[C@@H]2CO)[C@H](N)[C@@H](O)[C@@H]1O [Paromomycin, paromomycin]	0.8 (≈ 1.3 µM)	1.6 (≈ 2.6 µM)	0.8 (≈ 1.3 µM)	6.3 (≈ 10.2 µM)	12.5 (≈ 20.3 µM)	0.2 (≈ 0.325 µM)	12.5 (≈ 20.3 µM)	0.4 (≈ 0.65 µM)	0.8 (≈ 1.3 µM)	0.8 (≈ 1.3 µM)	0.8 (≈ 1.3 µM)	1.6 (≈ 2.6 µM)	1.6 (≈ 2.6 µM)	50 (≈ 81.2 µM)	12.5 (≈ 20.3 µM)	1.6 (≈ 2.6 µM)	> 100	> 100	> 100	1.6 (≈ 2.6 µM)	MIC ([7]; Table 7, Mueller-Hinton agar, read-out: MIC): 3.1 mg/L (≈ 5.04 µM); MIC [18]: > 100 mg/L; MIC [19]: > 100 mg/L; MIC [24]: > 100 mg/L; MIC [25]: 1.6 mg/L (≈ 2.6 µM); MIC [26]: > 100 mg/L; MIC [27]: > 100 mg/L; MIC [28]: > 100 mg/L; MIC [29]: > 100 mg/L
NC[C@H]1O[C@H](O[C@H]2[C@H](O[C@@H]3O[C@H](CO)[C@@H](O)[C@H]3O)[C@@H](O)[C@H](N)C[C@@H]2N)[C@H](N)[C@@H](O)[C@@H]1O [Ribostamycin, ribostamycin]	1.6 (≈ 3.52 µM)	3.1 (≈ 6.82 µM)	3.1 (≈ 6.82 µM)	6.3 (≈ 13.9 µM)	12.5 (≈ 27.5 µM)	0.4 (≈ 0.88 µM)	6.3 (≈ 13.9 µM)	0.4 (≈ 0.88 µM)	0.8 (≈ 1.76 µM)	1.6 (≈ 3.52 µM)	1.6 (≈ 3.52 µM)	1.6 (≈ 3.52 µM)	0.8 (≈ 1.76 µM)	> 100	100 (≈ 220 µM)	25 (≈ 55 µM)	> 100	> 100	> 100	1.6 (≈ 3.52 µM)	MIC [7]: 3.1 mg/L (≈ 6.82 µM); MIC ([18]; Table 9, inactivating enzyme APH(3')-I,II, Mueller-Hinton agar, read-out: MIC): > 100 mg/L; MIC ([19]; Table 9, inactivating enzyme ANT (4'), Mueller-Hinton agar, read-out: MIC): > 100 mg/L; MIC [24]: > 100 mg/L; MIC [25]: 1.6 mg/L (≈ 3.52 µM); MIC [26]: > 100 mg/L; MIC ([27]; Table 9, inactivating enzyme APH(3')-I, Mueller-Hinton agar, read-out: MIC): > 100 mg/L; MIC ([28]; Table 9, inactivating enzymes AAC(3)-I, APH(3')-II, Mueller-Hinton agar, read-out: MIC): > 100 mg/L; MIC ([29]; Table 9, inactivating enzyme AAC(3)-II, Mueller-Hinton agar, read-out: MIC): > 100 mg/L
